{
  "source": "patent US20240052317A1",
  "about": "“Methods for Differentiating Stromal Cells or Pericytes” (Lung Biotechnology PBC, priority 2022, published 2024)",
  "test_system": "human pulmonary artery endothelial cells (HPAEC)",
  "assay": "Tube formation assay of test differentiated cells co-cultured with HPAEC",
  "type": "cell-based",
  "settings": "co-culture of HPAEC and test differentiated cells, 1 μM imatinib mesylate, FIG. 2",
  "method": "Next, test differentiated cells were further characterized with a tube formation assay using the following protocol. Test differentiated cells were co-cultured with human pulmonary artery endothelial cells (HPAEC) with or without 1 μM imatinib mesylate to inhibit angiogenesis, and tube formation was observed. Specifically, the wells of 96-well plates (Costar, Product No. 387) were coated with 30 μL of Matrigel® GFR. Plates were spun for 1 minute at 1,500 rotations per minute (RPM) and incubated for 30 minutes at 30° C. Cells were then lifted from culture plates, counted and resuspended in DMEM/F12 media such that 30 μL of media was available for each well. Each well received 30,000 HPAEC and 5,000 differentiated cells.\nGreen labeling of HPAEC was performed using Nuclight Green Lentivirus, Essen/Sartorius #4475. 100 μL of transfection reagent was added to 5 mL of media and mixed. In another 5 mL of media, 10 μL of needed lentivirus was added and mixed. Both 5 mL preparations were then added together, mixed, and added to an approximately 70% confluent plate of HPAEC or pericytes. Plates were allowed grow overnight in incubator.\nMedia and lentivirus preparation was removed and replaced with fresh media, and plates were incubated overnight. Plates were incubated for one week, using 1 μg of puromycin in the media for daily media changes […]",
  "note": "Where a name gives a salt, the structure may show the parent alone.",
  "data": [
    {"smiles": "Cc1ccc(NC(=O)c2ccc(CN3CCN(C)CC3)cc2)cc1Nc1nccc(-c2cccnc2)n1", "note": "[imatinib mesylate]", "values": [
      {"measurement": "tube formation and co-localization with HPAEC", "value": "did not"}
    ]}
  ]
}
